Laboratory results taken from patent US20250026778A1 (TIUMBIO CO., LTD., priority 2021, published 2025).
Like-named read-outs stand apart in the source and are kept apart here.

Molecular target: T1, his-galectin-3 (Homo sapiens, UniProt P17931)
T1 construct: purchased Abcam
Assay: TR-FRET assay (in vitro galectin-3 binding inhibitory activity test)
Details: compound at 20 μM, 60 nM his-galectin-3, 15 nM biotin-ASF
Procedure: TR-FRET Assay (In Vitro Galectin-3 Binding Inhibitory Activity Test)
TR-FRET assay was performed in ½ Area Plate-96 (PerkinElmer). Final concentrations of components in the assay were 60 nM his-galectin-3 (Abcam), 15 nM biotin-ASF (Axxora), 2 nM Mab anti-6×His Tb (Cisbio) and 20 nM SA-d2 (Cisbio). The reaction was performed in a buffer containing 25 mM HEPES, 100 mM NaCl, 0.005% Tween 20 and 0.05% BSA. 20 μL his-galectin-3 and 1 μL compound were mixed first, and then 20 μL biotin-ASF, 5 μL anti-His Tb and 5 μL SA-d2 were added in order. After incubation for at least 3.5 hours at RT, TR-FRET signals were measured at 615/665 nm […] wavelengths using a VICTOR Nivo (PerkinElmer). The positive control used DMSO instead of the compound, and the negative control excluded ASF-biotin. N-acetyl-D-lactosamine (LacNAc), an endogenous ligand unit of galectin-3, was evaluated together as a control substance to compare galectin-3 binding inhibitory activity.

[1] = Table 1, read-out: % Inhibitory activity (at 20 μM)
[2] = Table 2, read-out: % Inhibitory activity (at 20 μM)

T1 sequence (P17931 whole entry): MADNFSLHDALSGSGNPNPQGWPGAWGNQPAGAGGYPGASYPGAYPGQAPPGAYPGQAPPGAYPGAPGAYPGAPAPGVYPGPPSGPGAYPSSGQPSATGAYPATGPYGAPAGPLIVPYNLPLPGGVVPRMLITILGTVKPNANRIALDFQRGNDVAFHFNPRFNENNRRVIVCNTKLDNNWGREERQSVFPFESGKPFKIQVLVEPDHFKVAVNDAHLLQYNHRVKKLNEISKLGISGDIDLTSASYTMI

Row | inhibition at 20 µM [1] | inhibition at 20 µM [2] | SMILES | other results
1 | 25 to 50% | – | O=C(Cc1ccc(Oc2ccccc2)cc1)N[C@@H]1CCO[C@]12O[C@H](CO)[C@H](O)[C@H](n1cc(-c3cc(F)c(F)c(F)c3)nn1)[C@H]2O [Compound A148, N-((4R,5S,7R,8R,9S,10R)-8,10-dihydroxy-7-(hydroxymethyl)-9-(4-(3,4,5-trifluorophenyl)-1H-1,2,3-triazol-1-yl)-1,6-dioxaspiro[4.5]decan-4-yl)-2-(4-phenoxyphenyl)acetamide] | –
2 | – | > 75% | O=C(Nc1cccc(Cl)c1)N[C@@H]1CCO[C@]12O[C@H](CO)[C@H](O)[C@H](n1cc(-c3cc(F)c(F)c(F)c3)nn1)[C@H]2O [Compound A215, 1-(3-chlorophenyl)-3-((4R,5S,7R,8R,9S,10R)-8,10-dihydroxy-7-(hydroxymethyl)-9-(4-(3,4,5-trifluorophenyl)-1H-1,2,3-triazol-1-yl)-1,6-dioxaspiro[4.5]decan-4-yl)urea] | –
3 | > 75% | – | COc1cccc(C(=O)N[C@@H]2CCO[C@]23O[C@H](CO)[C@H](O)[C@H](n2cc(-c4cc(F)c(F)c(F)c4)nn2)[C@H]3O)c1 [Compound A118, N-((4R,5S,7R,8R,9S,10R)-8,10-dihydroxy-7-(hydroxymethyl)-9-(4-(3,4,5-trifluorophenyl)-1H-1,2,3-triazol-1-yl)-1,6-dioxaspiro[4.5]decan-4-yl)-3-methoxybenzamide] | –
4 | – | 50 to 75% | O=C(N[C@@H]1CCO[C@]12O[C@H](CO)[C@H](O)[C@H](n1cc(-c3cc(F)c(F)c(F)c3)nn1)[C@H]2O)c1cc2cccc(Cl)c2s1 [Compound A159, 7-chloro-N-((4R,5S,7R,8R,9S,10R)-8,10-dihydroxy-7-(hydroxymethyl)-9-(4-(3,4,5-trifluorophenyl)-1H-1,2,3-triazol-1-yl)-1,6-dioxaspiro[4.5]decan-4-yl)benzo[b]thiophene-2-carboxamide] | –
5 | – | > 75% | O=C(N[C@@H]1CCO[C@]12O[C@H](CO)[C@H](O)[C@H](n1cc(-c3cc(F)c(F)c(F)c3)nn1)[C@H]2O)c1c[nH]c2cccc(Br)c12 [Compound A253, 4-bromo-N-((4R,5S,7R,8R,9S,10R)-8,10-dihydroxy-7-(hydroxymethyl)-9-(4-(3,4,5-trifluorophenyl)-1H-1,2,3-triazol-1-yl)-1,6-dioxaspiro[4.5]decan-4-yl)-1H-indole-3-carboxamide] | –
6 | – | > 75% | O=C(N[C@@H]1CCO[C@]12O[C@H](CO)[C@H](O)[C@H](n1cc(-c3cc(F)c(F)c(F)c3)nn1)[C@H]2O)c1csc2ccc(Br)cc12 [Compound A251, 5-bromo-N-((4R,5S,7R,8R,9S,10R)-8,10-dihydroxy-7-(hydroxymethyl)-9-(4-(3,4,5-trifluorophenyl)-1H-1,2,3-triazol-1-yl)-1,6-dioxaspiro[4.5]decan-4-yl)benzo[b]thiophene-3-carboxamide] | –
7 | – | > 75% | O=C(N[C@@H]1CCO[C@]12O[C@H](CO)[C@H](O)[C@H](n1cc(-c3cc(F)c(F)c(F)c3)nn1)[C@H]2O)c1cccc2ccc(Br)cc12 [Compound A211, 7-bromo-N-((4R,5S,7R,8R,9S,10R)-8,10-dihydroxy-7-(hydroxymethyl)-9-(4-(3,4,5-trifluorophenyl)-1H-1,2,3-triazol-1-yl)-1,6-dioxaspiro[4.5]decan-4-yl)-1-naphthamide] | –
8 | – | > 75% | O=C(N[C@@H]1CCO[C@]12O[C@H](CO)[C@H](O)[C@H](n1cc(-c3cc(F)c(F)c(F)c3)nn1)[C@H]2O)c1cc2ccccc2cc1Cl [Compound A201, 3-chloro-N-((4R,5S,7R,8R,9S,10R)-8,10-dihydroxy-7-(hydroxymethyl)-9-(4-(3,4,5-trifluorophenyl)-1H-1,2,3-triazol-1-yl)-1,6-dioxaspiro[4.5]decan-4-yl)-2-naphthamide] | –
9 | – | 50 to 75% | O=C(N[C@@H]1CCO[C@]12O[C@H](CO)[C@H](O)[C@H](n1cc(-c3cc(F)c(F)c(F)c3)nn1)[C@H]2O)c1cccc(-c2ccccc2Br)c1 [Compound A179, 2′-bromo-N-((4R,5S,7R,8R,9S,10R)-8,10-dihydroxy-7-(hydroxymethyl)-9-(4-(3,4,5-trifluorophenyl)-1H-1,2,3-triazol-1-yl)-1,6-dioxaspiro[4.5]decan-4-yl)-[1,1′-biphenyl]-3-carboxamide] | –
10 | 50 to 75% | – | O=C(N[C@@H]1CCO[C@]12O[C@H](CO)[C@H](O)[C@H](n1cc(-c3cc(F)c(F)c(F)c3)nn1)[C@H]2O)c1cccc(C(F)(F)F)c1 [Compound A152] | –
11 | – | > 75% | O=C(N[C@@H]1CCO[C@]12O[C@H](CO)[C@H](O)[C@H](n1cc(-c3cc(F)c(F)c(F)c3)nn1)[C@H]2O)c1ccnc2ccc(Br)cc12 [Compound A209, 6-bromo-N-((4R,5S,7R,8R,9S,10R)-8,10-dihydroxy-7-(hydroxymethyl)-9-(4-(3,4,5-trifluorophenyl)-1H-1,2,3-triazol-1-yl)-1,6-dioxaspiro[4.5]decan-4-yl)quinoline-4-carboxamide] | –

The next lines start with the molecule.

Row | SMILES | inhibition at 20 µM [1] | inhibition at 20 µM [2] | other results
12 | COc1cccc(CC(=O)N2CCC[C@]3(C2)O[C@H](CO)[C@H](O)[C@H](n2cc(-c4cc(F)c(F)c(F)c4)nn2)[C@H]3O)c1 [Compound A140, 1-((2R,3R,4S,5R,6R)-3,5-dihydroxy-2-(hydroxymethyl)-4-(4-(3,4,5-trifluorophenyl)-1H-1,2,3-triazol-1-yl)-1-oxa-8-azaspiro[5.5]undecan-8-yl)-2-(3-methoxyphenyl)ethanone] | < 25% | – | –
13 | OC[C@H]1O[C@@]2(CCCCO2)[C@H](OCc2ccccc2O)[C@@H](n2cc(-c3cc(F)c(F)c(F)c3)nn2)[C@H]1O [Compound A47, (2R,3R,4S,5R,6S)-5-((2-hydroxybenzyl)oxy)-2-(hydroxymethyl)-4-(4-(3,4,5-trifluorophenyl)-1H-1,2,3-triazol-1-yl)-1,7-dioxaspiro[5.5]undecan-3-ol] | 25 to 50% | – | –
14 | O=C(c1cncs1)N1CCC[C@]2(C1)O[C@H](CO)[C@H](O)[C@H](n1cc(-c3cc(F)c(F)c(F)c3)nn1)[C@H]2O [Compound A190, ((2R,3R,4S,5R,6R)-3,5-dihydroxy-2-(hydroxymethyl)-4-(4-(3,4,5-trifluorophenyl)-1H-1,2,3-triazol-1-yl)-1-oxa-8-azaspiro[5.5]undecan-8-yl)(thiazol-5-yl)methanone] | – | < 25% | –
15 | OC[C@H]1O[C@@]2(CCCO2)[C@H](OCc2cccnc2)[C@@H](n2cc(-c3cc(F)c(F)c(F)c3)nn2)[C@H]1O [Compound A16, (5S,7R,8R,9S,10R)-7-(hydroxymethyl)-10-(pyridin-3-ylmethoxy)-9-(4-(3,4,5-trifluorophenyl)-1H-1,2,3-triazol-1-yl)-1,6-dioxaspiro[4.5]decan-8-ol acetate] | 25 to 50% | – | –
16 | OC[C@H]1O[C@@]2(CCCCO2)[C@H](OCc2cccc(F)c2)[C@@H](n2cc(-c3cc(F)c(F)c(F)c3)nn2)[C@H]1O [Compound A48, (2R,3R,4S,5R,6S)-5-((3-fluorobenzyl)oxy)-2-(hydroxymethyl)-4-(4-(3,4,5-trifluorophenyl)-1H-1,2,3-triazol-1-yl)-1,7-dioxaspiro[5.5]undecan-3-ol] | 25 to 50% | – | inhibition at 20 µM (Table 3, found values, read-out: % Inhibitory activity (at 20 μM)): 43.7%
17 | O=C(O[C@@H]1[C@@H](n2cc(-c3cc(F)c(F)c(F)c3)nn2)[C@@H](O)[C@@H](CO)O[C@@]12CCCO2)c1ccncc1 [Compound A80, (5S,7R,8R,9S,10R)-8-hydroxy-7-(hydroxymethyl)-9-(4-(3,4,5-trifluorophenyl)-1H-1,2,3-triazol-1-yl)-1,6-dioxaspiro[4.5]decan-10-yl isonicotinate] | 25 to 50% | – | –
18 | OC[C@H]1O[C@@]2(CCCCO2)[C@H](OCc2ccccn2)[C@@H](n2cc(-c3cc(F)c(F)c(F)c3)nn2)[C@H]1O [Compound A50, (2R,3R,4S,5R,6S)-2-(hydroxymethyl)-5-(pyridin-2-ylmethoxy)-4-(4-(3,4,5-trifluorophenyl)-1H-1,2,3-triazol-1-yl)-1,7-dioxaspiro[5.5]undecan-3-ol] | 25 to 50% | – | –
19 | N[C@@H]1CCO[C@]12O[C@H](CO)[C@H](O)[C@H](n1cc(-c3cc(F)c(F)c(F)c3)nn1)[C@H]2O [Compound A56, (4R,5S,7R,8R,9S,10R)-4-amino-7-(hydroxymethyl)-9-(4-(3,4,5-trifluorophenyl)-1H-1,2,3-triazol-1-yl)-1,6-dioxaspiro[4.5]decane-8,10-diol] | < 25% | – | –
20 | OC[C@H]1O[C@@]2(CCCCO2)[C@H](OCc2cccc(C(F)(F)F)c2)[C@@H](n2cc(-c3cc(F)c(F)c(F)c3)nn2)[C@H]1O [Compound A49, (2R,3R,4S,5R,6S)-2-(hydroxymethyl)-5-((3-(trifluoromethyl)benzyl)oxy)-4-(4-(3,4,5-trifluorophenyl)-1H-1,2,3-triazol-1-yl)-1,7-dioxaspiro[5.5]undecan-3-ol] | 25 to 50% | – | –
21 | O=C(Cc1cccc(Cl)c1)N[C@@H]1CCO[C@]12O[C@H](CO)[C@H](O)[C@H](n1cc(-c3cc(F)c(F)c(F)c3)nn1)[C@H]2O [Compound A106, 2-(3-chlorophenyl)-N-((4R,5S,7R,8R,9S,10R)-8,10-dihydroxy-7-(hydroxymethyl)-9-(4-(3,4,5-trifluorophenyl)-1H-1,2,3-triazol-1-yl)-1,6-dioxaspiro[4.5]decan-4-yl)acetamide] | – | – | inhibition at 20 µM (read-out: % Inhibitory activity (at 20 μM), Table 1): 50 to 75%
